Test results published in patent US5871779A, “Treatment of arthropathies with vanadate compounds or analogues thereof” (Mount Sinai Hospital Corporation, priority 1996, dated 1999).

Experiments:
[1] = tolerability of BMOV and NAC in arthritic rats; format: in vivo
Procedure: Rats with definite arthritis on Day 10 post immunization were randomized into two groups. Control rats (n=8) received only NAC at a dose of 100 mg/kg/day s.c. NAC was prepared as a 3% aqueous solution. The experimental group (n=9) received NAC at 100 mg/kg/day s.c., as well as BMOV subcutaneously at 10 mg/kg/day. BMOV was solubilized in a 5% dextrose solution at 50° C.

[2] = tested on: metastases of MDAY-D2 cells; assay: liver metastases of MDAY-D2 cells (histology); format: in vivo, mice; details: 500 μg/day; preliminary results
Description: In order to examine the ability of vanadyl compounds to reduce tumor formation, growth and metastases, a specific animal model which allows investigation of all of these processes in the same animal was chosen. This model involves the injection of a metastatic haematopoietic cell line, MDAY-D2, into mice subcutaneously. These cells form a tumor at the site of injection and its size can be easily determined. In addition, these cells metastasize to the liver and metastases can be detected histologically after day 17 to 19. This model provides a very sensitive and reproducible approach to investigate the effect of vanadyl compounds on tumor growth and metastases.
The metastatic liver was obtained from an animal 24 days following the administration MDAY-D2 cells. The nodules are quite numerous and large.
Livers were removed from animals treated as described above and prepared for histological examination. FIG. 16 compares liver sections from untreated (C), orthovanadate (VO)(500 μg/day) and vanadyl sulphate (VS)(500 μg/day) treated animals. Nodules are identified with an arrow.

[3] = tested on: MDAY-D2 cells; assay: viability of MDAY-D2 cells; format: cell-based, mouse; details: 0-50 μM, 48 hours
Procedure: (§1) Fos and jun activity are also required for cellular proliferation in many tumor cell lines. Accordingly, the effect of orthovanadate on adherent cells and cell suspensions were examined. MDAY-D2 (a mouse lymphoid cell line grown in suspension) and HTB14 cells (an adherent human primary astrocytoma cell line) were incubated in media containing 0-50 μM orthovanadate for 48 hours. The cells were harvested and the number of viable cells determined.
Three different forms of vanadyl compounds were examined for their effect on viability of cancer cell lines. MDAY-D2 cells were incubated in media containing 0-50 μM orthovanadate, vanadyl sulphate, or vanadyl hydroperoxide for 48 hours. The cells were harvested and the number of viable cells determined. […] Although there were slight differences in sensitivity, the overall cell death was similar.

[4] = tested on: jun; assay: jun / c-jun mRNA expression in chondrocytes (Northern blot); format: cell-based, bovine; details: 100 μM
Description: The cytokine interleukin 1 (IL 1) has been used to identify the intermediate second messengers which regulate the expression of fos and jun.
Although IL 1 stimulated superoxide production, it was not known whether IL 1 induced fos and jun expression was dependent on the production of superoxides. In order to elucidate this possibility, the effect of DPI on fos and jun mRNA levels induced by IL 1 was investigated. RNA from chondrocytes treated with IL 1 in the presence and absence of DPI were analyzed by Northern blot analysis using either fos or collagenase cDNA probes. […] Similar data has been obtained for IL 1 induced jun expression. Furthermore, inhibition of fos and jun expression by DPI was sufficient to suppress IL 1 induced and constitutive collagenase expression.
The effect of orthovanadate and N-acetylcysteine on fos, jun and collagenase expression were examined. Bovine articular chondrocytes were isolated and plated as previously described (Kandel R. A. et al. Biochim. Biophys. Acta. 1053, 130-134, 1990). In order to determine the effect of orthovanadate on IL 1 and PMA (phorbol ester) induced responses, chondrocytes were incubated with orthovanadate (100 μM) for 2 hours before stimulation with IL 1 (10 ng/ml) or PMA ([…]). Collagenase production was determined by incubating chondrocytes for 24 hours with IL 1 or PMA and the cell conditioned medium was assayed for collagenase activity using an ELISA procedure as described previously (Kandel et al. supra). PLA2 activity was measured by incorporating ^3 H-arachidonic acid (^3 H-AA) into the cells and then incubating the cells with medium containing 1 mg/ml BSA, either alone or in the presence of IL 1 or PMA, for 10 min. as previously described (Conquer, J. A. […], Biochim. Biophys. Acta. 1134, 1-6). The amount of ^3 H-AA liberated into the supernatant was determined. […] The supernatant was analyzed by RIA using an antibody specific for PGE2 (Dr. S. A. Jones, Mount Sinai Hospital, Toronto, Canada). […]

[5] = tested on: LS180; assay: MTT cytotoxicity assay, LS180; format: cell-based, human; details: LS180, 72 hours
Procedure: The relative cytotoxicity of various compounds on tumor cell lines was investigated as follows. Cytotoxicity was measured by the MTT microculture tetrazolium colorimetric assay for all cell lines. The relative cytotoxicity of Na3 VO4 and VOSO4 was investigated using the following tumor cell lines: P388(WT) murine leukemia, P388 (ADR) murine leukemia, Lewis murine lung, MCF7 (WT) human breast, […] human lung, K562 human erythroleukemia, A431 human epidermal, LS180 human colon and SK-OV-3 human ovarian. The relative cytotoxicity of doxorubicin, Na3 VO4 and VOSO4 was investigated using the following tumor cell lines: P388(WT) murine leukemia, P388 (ADR) murine leukemia, MCF7(WT) human breast and MCF7 (ADR) human breast. The relative cytotoxicity of BMOV, BEOV and naglivan was investigated using the following tumor cell lines: P388(WT) murine leukemia, P388 (ADR) murine leukemia, Lewis murine lung, H460 human lung, K562 human erythroleukemia, and SK-OV-3 human ovarian.
The cells were plated (number of cells/well was different from cell line to cell depending on the dividing rate) in a 96-well microculture plate 24 hours prior to the delivery of the vanadium compounds. Serial concentrations of solutions of the test compounds (0.05-100 μM) were delivered to the corresponding wells. […] The absorbance of each well was read with a Titertek Multiskan (310C) spectrophotometer at 570 nm. […]

[6] = tested on: HTB14 cells; assay: viability of HTB14 cells; format: cell-based, human; details: 0-50 μM, 48 hours
Procedure: as §1

| SMILES | diarrhea ([1]; BMOV 10 mg/kg/day) | diarrhea ([1]; BMOV 15 mg/kg/day from Day 11) | metastases in liver [2] | toxicity to MDAY-D2 cells [3] | killing of MDAY-D2 cells ([3]; three forms compared) | inhibition of IL 1, PMA and AA induced c-jun expression [4] | IC50 [5] | toxicity to HTB14 cells [6] |
| --- | --- | --- | --- | --- | --- | --- | --- | --- |
| Cc1occc(=O)c1[O-].Cc1occc(=O)c1[O-].[O]=[V+2] [BMOV, bis(methylmaltolato) oxovanadium (IV)] | not observed | minor diarrhea | – | – | – | – | – | – |
| [Na+].[Na+].[Na+].[O]=[V]([O-])([O-])[O-] [orthovanadate, sodium orthovanadate] | – | – | did not have detectable levels of metastases | toxic | equally effective | completely inhibited | 16.4 µM | toxic |
